How the values were obtained:
[1] = test system: T-47D cell; settings: human derived breast cancer, compared with SK-BR-3; cited from earlier work
[2] = test system: MCF7; settings: breast cancer cells MCF7; cited from earlier work
[3] = test system: SK-BR-3; settings: breast cancer cell SK-BR-3; stated as known; cited from earlier work
[4] = test system: SHSY5Y cell; assay: Exposure of SHSY5Y neuroblastoma cells to stimulants: marker enzyme expression and extension of neuron projection; format: cell-based; settings: a neuroblastoma from human
Source text: The functions of (1) and (2) are different, but share the same properties in terms of extension of neuron projection. Therefore, cellular components necessary for these two intracellular alteration were specified experimentally by means of RNA interference method. As such, it was obtained that the component collection (3) necessary for the alteration from SHSY5Y to (1) are {JAK1, JAK3, ROR, and RET}. On the other hand, the component collection (4) necessary for the alteration from SHSY5Y cells to (2), are {NTRK1, EPHB2, INSR, RDGFRA, ROR and RET}. When comparing and calculation of intersection is done for (3) and (4), the intersection (5) was obtained to read {ROR and RET}. Next, the collection (6) {JAK1 and JAK3} by subtraction of (3)-(5) and the collection (5) were analyzed in terms of an intermolecular interaction, and the existence of a pathway of a molecular signals from (6) to (5) (FIG. 3A) was determined. Furthermore, the collection (7) which was obtained by the subtraction of (4)-(5), and the collection (5) were analyzed in terms of an intermolecular interaction, and the existence of a pathway of molecular signals from (7) to (5) (FIG. 3B) was further determined. The common components and pathway relating to the projection extension by retinoic acid (RA) and Nerve Growth Factor (NGF) are shown in FIG. 4.

| Compound | DXR sensitivity [1] | DXR resistance [2] | growth inhibition [3] | expression of tyrosine hydroxylase [4] | extension of neuron projection [4] | neuron cell type formed [4] |
| --- | --- | --- | --- | --- | --- | --- |
| COc1cccc2c1C(=O)c1c(O)c3c(c(O)c1C2=O)C[C@@](O)(C(=O)CO)C[C@@H]3O[C@H]1C[C@H](N)[C@H](O)[C@H](C)O1 [doxorubicin] | same DXR sensitivity as the SK-BR-3 | having DXR resistance | subjected to growth inhibition | – | – | – |
| Nerve Growth Factor: Nerve Growth Factor (NGF), stimulant triggering neurite outgrowth in SHSY5Y cells | – | – | – | tyrosine hydroxylase was expressed | caused extension of neuron projection | forms dopaminergic neuron cells |

— patent US20100210708A1, “COMPOUND PROFILING METHOD” (CYTOPATHFINDER, INC., priority 2007, published 2010)
